Reference: patent publication US7842808B2, “Anti-migraine spirocycles” (Bristol-Myers Squibb Company, priority 2002, dated 2010)
Where two headings read alike, the source gives them in different places.

What was measured:
[1] = test system: human cerebral vessels (CGRP-induced dilation); assay: Ex Vivo Human Cerebral Artery Assay, reversal of CGRP-induced relaxation; conditions: reversal of 1 nM hCGRP-induced relaxation, vessels pre-contracted with 10 mM KCl
Source text: Rationale and Overview. To provided direct evidence of the ability for novel compounds to reverse CGRP-induced dilation in human cerebral vessels, an ex vivo assay was design. Briefly, isolated vessel rings were mounted in a tissue bath where vessels were pre-contracted with potassium chloride (KCl) and fully dilated with hCGRP, then this relaxation was reversed by the cumulative addition of CGRP-receptor antagonists (complete details follow).
Tissue Samples. Autopsy samples of human arteries were obtained from vendors (ABS Inc. or NDRI). All vessels were transported on ice-cold HEPES buffer (composition in mM: NaCl 130, KCl 4, KH2PO4 1.2, MgSO4 1.2, CaCl2 1.8, Glucose 6, NaHCO3 4, HEPES 10, EDTA 0.025). Upon receipt, the vessels were placed in cold Kreb's buffer (composition in mM: NaCl 118.4, KCl 4.7, KH2PO4 1.2, MgSO4 1.2, CaCl2 1.8, Glucose 10.1, NaHCO3 25) saturated with carbogen (5% CO2 and 95% oxygen).
Isolated Tissue Baths. The vessels were cleaned of connective tissues and cut into cylindrical segments of 4-5 mm in length. The vessels were then mounted in tissue baths between two stainless steel hooks; one of which is fixed and the other of which was connected to a force displacement transducer. The vessel tension was continuously recorded using a data acquisition system (Powerlab, ADInstruments, Mountain View, Calif.) connected to the transducer. The tissue baths containing Krebs buffer and mounted vessels were temperature (37° C.) and pH (7.4) controlled with continuous bubbling of carbogen. The artery segments were allowed to equilibrate for about 30-45 min until a stable resting tone was achieved. Prior to the assay, vessels were primed (conditioned) with 100 mM KCl and subsequently washed. The vessels were pre-contracted with 10 mM KCl and fully dilated with 1 nM hCGRP. Concentration-response curves to CGRP-receptor antagonists were performed by the cumulative addition of drugs in half log units in fully dilated vessels. At each concentration, the effects of the drugs were expressed as % reversal of CGRP-induced relaxation in each vessel. The actual assay and data analysis were performed for each vessel individually, fitting the concentration-response data to a four parameter logistic function by non-linear regression analysis, to estimate the EC50 values.

[2] = target: T1, CGRP receptor (SK-N-MC cell membranes) (Homo sapiens, UniProt O60894+Q16602); assay: CGRP Binding Assay ([125I]-CGRP radioligand binding, SK-N-MC homogenate)
T1 construct: endogenous in cells; host or cells: SK-N-MC cells (membrane homogenate)

[3] = target: T2, human CGRP receptor (SK-N-MC cells) (Homo sapiens, UniProt O60894+Q16602); assay: Cyclic AMP Assay, functional antagonism of CGRP-induced cyclic AMP formation; type: cell-based
T2 construct: SK-N-MC cells that endogenously express the human CGRP receptor; endogenous in cells; host or cells: SK-N-MC cells
Description: Functional Antagonism. Antagonism of the compounds of invention was determined by measuring the formation of cyclic AMP (adenosine 3′5′-cyclic monophosphate) in SK-N-MC cells that endogenously express the human CGRP receptor. […] For cyclic AMP measurements SK-N-MC cells were incubated with 0.3 nM CGRP alone or in the presence of various concentrations of the compounds of invention for 30 min at room temperature. […] Cyclic AMP was extracted using the lysis reagent and its concentration was determined by radioimmunoassay using RPA559 cAMP SPA Direct Screening Assay Kit (Amersham Pharmacia Biotech). IC50 values were calculated using Excel fit.

[4] = displacement of [125I]-CGRP, SK-N-MC homogenate, read-out: CGRP binding IC50
[5] = SK-N-MC cells, 0.3 nM CGRP, read-out: cAMP Function IC50

T1 sequence (Q16602 23-461): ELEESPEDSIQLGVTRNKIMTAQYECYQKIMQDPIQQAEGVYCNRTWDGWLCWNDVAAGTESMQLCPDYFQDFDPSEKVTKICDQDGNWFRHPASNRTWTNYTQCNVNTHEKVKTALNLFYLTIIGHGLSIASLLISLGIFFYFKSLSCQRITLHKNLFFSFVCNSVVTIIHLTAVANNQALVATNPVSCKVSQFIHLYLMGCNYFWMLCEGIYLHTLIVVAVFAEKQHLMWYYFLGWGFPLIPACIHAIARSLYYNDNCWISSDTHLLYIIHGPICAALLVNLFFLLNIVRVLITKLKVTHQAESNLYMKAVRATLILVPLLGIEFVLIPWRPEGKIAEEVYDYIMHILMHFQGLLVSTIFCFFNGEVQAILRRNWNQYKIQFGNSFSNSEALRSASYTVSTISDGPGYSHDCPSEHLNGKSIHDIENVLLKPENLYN
T1 sequence (O60894 27-148): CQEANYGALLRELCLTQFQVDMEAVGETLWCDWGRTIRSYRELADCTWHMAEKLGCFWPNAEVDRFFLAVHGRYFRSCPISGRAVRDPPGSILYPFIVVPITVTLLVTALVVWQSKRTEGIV
T2 sequence (Q16602 23-461): as the sequence (Q16602 23-461) above
T2 sequence (O60894 27-148): as the sequence (O60894 27-148) above

Compound	EC50 [1] [nM]	IC50 [2, 4] [nM]	IC50 [3, 5] [nM]	IC50 [2] [nM]	IC50 [3] [nM]
Cc1cc(CC(CC(=O)N2CCC(N3Cc4ccccc4NC3=O)CC2)C(=O)N(C)C)cc2cn[nH]c12 (racemic) [Example 72, (±)-N,N-Dimethyl-2-(7-methyl-1H-indazol-5-ylmethyl)-4-oxo-4-[4-(2-oxo-1,4-dihydro-2H-quinazolin-3-yl)-piperidin-1-yl]-butyramide]	< 10	< 10	< 10		
O=C1Nc2ccccc2C2(CCN(C(=O)C[C@H](Cc3csc4ccccc34)C(=O)N3CCC(N4CCCCC4)CC3)CC2)O1 [Example 65]	10 to 100	< 10	10 to 100		
COC(=O)C(CC(=O)N1CCC(N2Cc3ccccc3NC2=O)CC1)Cc1cc(C)c2[nH]ncc2c1 (racemic) [Example 67, (±)-2-(7-Methyl-1H-indazol-5-ylmethyl)-4-oxo-4-[4-(2-oxo-1,4-dihydro-2H-quinazolin-3-yl)-piperidin-1-yl]-butyric acid methyl ester]	10 to 100	10 to 100	100 to 1000		
Cc1cc(CC(NC(=O)N2CCC3(CC2)NC(=O)Nc2ccccc23)C(=O)N2CCC(N3CCCCC3)CC2)cc2cn[nH]c12 (racemic) [Example 23, (±)-1-(7-Methyl-1H-indazol-5-ylmethyl)-2-[1,4-bipiperidin]-1-yl-2-oxoethyl]-2′,3′-dihydro-2′-oxospiro-[piperidine-4,4′-(1H)-quinazoline]-1-carboxamide]	< 10	< 10	< 10		
Cc1cc(CC(NC(=O)N2CCC(N3Cc4ccccc4NC3=O)CC2)C(=O)N2CCCC2)cc2cn[nH]c12 (racemic) [Example 20, (±)-4-(2-Oxo-1,4-dihydro-2H-quinazolin-3-yl)-piperidine-1-carboxylic acid[1-(7-methyl-1H-indazol-5-ylmethyl)-2-oxo-2-pyrrolidin-1-yl-ethyl]-amide]	< 10	< 10	< 10		
COC(=O)C(Cc1cc(C)c2[nH]ncc2c1)NC(=O)N1CCC(N2Cc3ccccc3NC2=O)CC1 (racemic) [Example 12, (±)-3-(7-Methyl-1H-indazol-5-yl)-2-{[4-(2-oxo-1,4-dihydro-2H-quinazolin-3-yl)-piperidine-1-carbonyl]-amino}-propionic acid methyl ester]		10 to 100	100 to 1000		
Cc1cc(CC(NC(=O)N2CCC3(CC2)N=C(c2ccccc2)NC3=O)C(=O)N(C)C)cc2cn[nH]c12 (racemic) [Example 36, (±)-4-Oxo-2-phenyl-1,3,8-triaza-spiro[4,5]dec-1-ene-8-carboxylic acid[1-dimethylcarbamoyl-2-(7-methyl-1H-indazol-5-yl)-ethyl]amide]		10 to 100	10 to 100		
O=C1Nc2ccccc2C2(CCN(C(=O)CC(Cc3ccc4[nH]ncc4c3)C(=O)N3CCC(N4CCCCC4)CC3)CC2)O1 (racemic) [Example 79, (±)-1-[1,4′]Bipiperidinyl-1′-yl-2-(1H-indazol-5-ylmethyl)-4-[1′,2′-dihydro-2′-oxospiro-[4H-3′,1-benzoxazine-4,4′-piperidinyl]-butane-1,4-dione]		10 to 100	100 to 1000		
Cc1cc(CC(NC(=O)N2CCC(N3Cc4ccccc4NC3=O)CC2)C(=O)N2CCN(c3ccccn3)CC2)cc2cn[nH]c12 (racemic) [Example 22, (±)-4-(2-Oxo-1,4-dihydro-2H-quinazolin-3-yl)-piperidine-1-carboxylic acid[1-(7-methyl-1H-indazol-5-ylmethyl)-2-oxo-2-(4-pyridin-2-yl-piperazin-1-yl)-ethyl]-amide]		< 10	< 10		
Cc1cc(CC(CC(=O)N2CCC(N3Cc4ccccc4NC3=O)CC2)C(=O)N2CCCCC2)cc2cn[nH]c12 (racemic) [Example 78, (±)-2-(7-Methyl-1H-indazol-5-ylmethyl)-4-[4-(2-oxo-1,4-dihydro-2H-quinazolin-3-yl)-piperidin-1-yl]-1-piperidin-1-yl-butane-1,4-dione]		< 10	< 10		
Cc1cc(CC(NC(=O)N2CCC3(CC2)OC(=O)Nc2ccccc23)C(=O)N(C)C)cc2cn[nH]c12 (racemic) [Example 27, (±)-[1-Dimethylcarbamoyl-2-(7-methyl-1H-indazol-5-yl)-ethyl]-1′,2′-dihydro-2′-oxospiro-[4H-3′,1-benzoxazine-4,4′-piperidine]-1-carboxamide]		10 to 100	100 to 1000		
CC(C)CN1CCN(C(=O)C(Cc2ccc3[nH]ccc3c2)NC(=O)N2CCC(n3c(=O)[nH]c4ccccc43)CC2)CC1 (racemic) [Example 7, (±)-4-(2-Oxo-2,3-dihydro-benzoimidazol-1-yl)-piperidine-1-carboxylic acid[1-(1H-indol-5-ylmethyl)-2-(4-isobutyl-piperazin-1-yl)-2-oxo-ethyl]-amide]		100 to 1000	100 to 1000		
O=C(NC(Cc1ccc2[nH]ncc2c1)C(=O)N1CCC2(CC1)OCCO2)N1CCC(n2c(=O)[nH]c3ccccc32)CC1 (racemic) [Example 10, (±)-4-(2-Oxo-2,3-dihydro-benzoimidazol-1-yl)-piperidine-1-carboxylic acid[2-(1,4-dioxa-8-aza-spiro[4.5]dec-8-yl)-1-(1H-indazol-5-ylmethyl)-2-oxo-ethyl]-amide]				100 to 1000	10 to 100
Cc1nc2cc(C[C@@H](NC(=O)N3CCC(N4Cc5ccccc5NC4=O)CC3)C(=O)N3CCC(N4CCCCC4)CC3)ccc2[nH]1 [Example 46, (R)-4-(2-Oxo-1,4-dihydro-2H-quinazolin-3-yl)-piperidine-1-carboxylic acid[2-[1,4′]bipiperidinyl-1′-yl-1-(2-methyl-1H-benzoimidazol-5-ylmethyl)-2-oxo-ethyl]-amide]		10 to 100	10 to 100		
O=C1CC2(CCN(C(=O)N[C@H](Cc3csc4ccccc34)C(=O)N3CCC(N4CCCCC4)CC3)CC2)c2ccccc2N1 [Example 62, N-[(1R)-1-(Benzo[b]thien-3-ylmethyl)-2-[1,4-bipiperidin]-1-yl-2-oxoethyl]-3′,4′-dihydro-2-oxospiro-[piperidine-4,4′(1H)-quinoline]-1-carboxamide]		10 to 100	10 to 100		
O=C1Nc2ccccc2C2(CCN(C(=O)N[C@H](Cc3csc4ccccc34)C(=O)N3CCC(N4CCCCC4)CC3)CC2)O1 [Example 64, N-[(1R)-1-(Benzo[b]thien-3-ylmethyl)-2-[1,4′-bipiperidin]-1′-yl-2-oxoethyl]-1,2-dihydro-2-oxospiro-[4H-3,1-benzoxazine-4,4′-piperidine]-1′-carboxamide]	10 to 100	10 to 100			
CC(C)CN1CCN(C(=O)C(Cc2ccc3[nH]ncc3c2)NC(=O)N2CCC(n3c(=O)[nH]c4ccccc43)CC2)CC1 (racemic) [Example 9, (±)-4-(2-Oxo-2,3-dihydro-benzoimidazol-1-yl)-piperidine-1-carboxylic acid[1-(1H-indazol-5-ylmethyl)-2-(4-isobutyl-piperazin-1-yl)-2-oxo-ethyl]-amide]		10 to 100	10 to 100		
O=C(CC(Cc1ccc2[nH]ncc2c1)C(=O)N1CCC2(CC1)OCCO2)N1CCC(N2Cc3ccccc3NC2=O)CC1 (racemic) [Example 81, (±)-1-(1,4-Dioxa-8-aza-spiro[4.5]dec-8-yl)-2-(1H-indazol-5-ylmethyl)-4-[4-(2-oxo-1,4-dihydro-2H-quinazolin-3-yl)-piperidin-1-yl]-butane-1,4-dione]		10 to 100			100 to 1000
Cc1cc(CC(NC(=O)N2CCC(N3Cc4ccccc4NC3=O)CC2)C(=O)O)cc2cn[nH]c12 (racemic) [Example 15, (±)-3-(7-Methyl-1H-indazol-5-yl)-2-{[4-(2-oxo-1,4-dihydro-2H-quinazolin-3-yl)-piperidine-1-carbonyl]-amino}-propionic acid]		100 to 1000	100 to 1000		
